The results in this text go back to US20030176442A1, “Treatment of diabetic ulcers” (priority 2000, published 2003).

This assay concerns diabetic foot ulcer. Kind of assay: anecdotal report: insulin-dependent diabetic patient with diabetic foot ulcer treated with sildenafil. The class given is in vivo, human. To be noted: one patient. An excerpt:
The efficacy of the cGMP PDE5 inhibitors in treating neuropathy in human patients is illustrated by the following anecdotal report. The patient was an insulin-dependent diabetic who had been suffering from erectile dysfunction and who subsequently developed a diabetic foot ulcer. During treatment of their erectile dysfunction with sildenafil it was noted that their foot ulcer, which they had had for approximately two years, was healing. The patient had been through various courses of treatment with minimal results. They had seen vascular surgeons, podiatrists and had visited wound care clinics. Ultimately, they were hopitalised for approximately one month on IV antibiotics etc, and the threat was very real that the patient was going to require a below-the-knee amputation. At times the ulcer would appear to be healing only to re-occur, returning to its pre-treatment size and depth. […] The patient was instructed to continue taking 50 mg of Sildenafil once a day.

In the case of `CCCc1nn(C)c2c(=O)[nH]c(-c3cc(S(=O)(=O)N4CCN(C)CC4)ccc3OCC)nc12` [Sildenafil, 5-[2-ethoxy-5-(4-methylpiperazin-1-ylsulphonyl)-phenyl]-1,6-dihydro-1-methyl-3-propylpyrazolo [4,3-d]pyrimidine-7-one], for the setting “ulcer present approximately two years, 50 mg of Sildenafil once a day”, the “outcome of the diabetic foot ulcer” value is reported as “complete resolution of the diabetic foot ulcer within one month”. Further, under “Sildenafil treatment begun for erectile dysfunction”, the “ulcer size after start of treatment” value was “decreasing in size”. Also, where the note is “same treatment (50 mg once a day) continued for the past two years”, the “re-occurrence of ulcer on continued treatment” value is reported as “without re-occurrence”.
